B1: DR-5 (dsDNA)
DNA 1: AGCTTCAGGTCACCAGGAGGTCAGAGAGCT
DNA 2: AGCTCTCTGACCTCCTGGTGACCTGAAGCT

Experiments:
endogenous RA receptor [1] = assay: Survey of cell lines for RA-dependent transactivation of the βRARE without transfected RAR; type: cell-based; details: CV-1, F9, P19, CHO, HeLa, NIH 3T3, Rat2 fibroblasts, HT1080.T, chick embryo fibroblasts, quail QT6 cells
RARα = biological target: T1, RARα (Homo sapiens, UniProt P10276); assay: Gel retardation DNA-binding assay with RARα-expressing COS cell extracts; parameters: expressed in transfected cells; host or cells: COS cells (whole-cell extract)
T1 sequence (P10276 1-462): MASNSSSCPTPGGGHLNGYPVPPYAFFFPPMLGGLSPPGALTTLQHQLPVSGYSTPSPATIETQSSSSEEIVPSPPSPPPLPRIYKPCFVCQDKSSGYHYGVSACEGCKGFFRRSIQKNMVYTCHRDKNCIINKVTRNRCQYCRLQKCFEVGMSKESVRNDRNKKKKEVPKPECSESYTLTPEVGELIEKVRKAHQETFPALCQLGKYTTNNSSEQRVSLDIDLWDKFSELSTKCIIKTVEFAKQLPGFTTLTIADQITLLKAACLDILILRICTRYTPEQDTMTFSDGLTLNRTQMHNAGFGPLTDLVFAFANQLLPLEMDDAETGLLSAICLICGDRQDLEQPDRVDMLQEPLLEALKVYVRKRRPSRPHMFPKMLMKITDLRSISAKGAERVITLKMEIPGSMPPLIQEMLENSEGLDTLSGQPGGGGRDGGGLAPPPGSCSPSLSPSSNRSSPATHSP
Procedure: For DNA binding assays, COS cells were cultured in DMEM with 10% calf bovine serum and transfected by the calcium phosphate method with 20 μg of the pCMX receptor expression plasmid for 6 hours followed by a glycerol shock. After incubating the transfected COS cells for another 48 hours, the cells were harvested to prepare extracts for the DNA binding assay, carried out as described by Damm et al., Nature 339: 593-597 (1989). The extracts were made in 20 mM HEPES (pH 7.4), 0.4 M KCl, 2 mM DTT and 20% glycerol. A similar method was employed to prepare a whole cell extract from F9 stem cells. For the binding, 5 μg (COS) or 10 μg (F9) of proteins was incubated on ice for 20 minutes, first in 20 mM HEPES, 80 mM KCl, 1 mM DTT, 0.1% NP40, 2.5 μg of poly dI/dC, and 10% glycerol (cold competitor oligonucleotides, when included, were added during this pre-incubation period). Then 40 fmole of ^32P-labeled oligonucleotide probe (1-2×10^5 cpm, prepared by filling-in reaction using Klenow polymerase in the presence of α-^32P-dCTP) was added to the reaction mixture, followed by incubation at room temperature for 30 minutes. The receptor-DNA complexes were resolved by electrophoresis through 5% polyacrylamide gel containing 5% glycerol at 6 V/cm at room temperature.
Oligonucleotides listed in FIG. 3 were used as a probe to test specific DNA-binding of the RARα and TRβ in a gel retardation assay. On the βRARE, a faint background binding activity was detected in the mock transfected COS cell extract. […] In each case the result obtained from in vivo transactivation and in vitro DNA binding are consistent.
Using the mobility shift assay, the DNA-binding capacity of extracts from COS cells expressing TRβ and RARα to these sequences was also tested. […] This pattern is consistent with that of the in vivo activation (FIG. 4). A reciprocal pattern was obtained when the same oligonucleotides were used to compete RARα binding to the ^32P-labeled βRARE. […] This provides a striking example of the role of half-site spacing in generating a functional response element.

RAR = biological target: T2, RAR (Homo sapiens, UniProt P10276); assay: Delta-MTV constructs, RA induction in CV-1 cells with cotransfected RAR expression vector; type: cell-based; details: Delta-MTV-CAT constructs; CV-1 cells
T2 construct: expressed in transfected cells; host or cells: CV-1 (monkey kidney)
T2 sequence (P10276 1-462): T1 sequence (P10276 1-462)
Procedure: Inspection of the sequences of βRE1, βRE2, and βRE3 (see FIG. 2b) identifies a tandem repeat of the 6 bp motif. The center to center separation of 11 bp between these repeats is one turn of the DNA helix. […] Apparently, a single half site element of the RARβ gene would reciprocally be responsive to the TR, ER, and/or other members of the receptor superfamily.
(§1) Cells were transfected in 10 cm dishes with 10 μg of DNA containing 5 μg of reporter plasmid, 1-2 μg of either RSV-LUC (a), or RSV-βGAL or pCH110 (c and d), pGEM4 as carrier DNA, and for the experiments shown in a and d, 1 μg of RSV-RAR expression vector or the same amount of an RSV vector generating a nonsense transcript. Cells were harvested 1 day after addition of retinoic acid. All CAT assays represent equivalent amounts of β-galactosidase activity; β-GAL assays were normalized to luciferase activity.

TRβ = biological target: T3, TRβ (Homo sapiens, UniProt P10828); assay: Gel retardation DNA-binding assay with TRβ-expressing COS cell extracts; parameters: expressed in transfected cells; host or cells: COS cells (whole-cell extract)
T3 sequence (P10828 1-461): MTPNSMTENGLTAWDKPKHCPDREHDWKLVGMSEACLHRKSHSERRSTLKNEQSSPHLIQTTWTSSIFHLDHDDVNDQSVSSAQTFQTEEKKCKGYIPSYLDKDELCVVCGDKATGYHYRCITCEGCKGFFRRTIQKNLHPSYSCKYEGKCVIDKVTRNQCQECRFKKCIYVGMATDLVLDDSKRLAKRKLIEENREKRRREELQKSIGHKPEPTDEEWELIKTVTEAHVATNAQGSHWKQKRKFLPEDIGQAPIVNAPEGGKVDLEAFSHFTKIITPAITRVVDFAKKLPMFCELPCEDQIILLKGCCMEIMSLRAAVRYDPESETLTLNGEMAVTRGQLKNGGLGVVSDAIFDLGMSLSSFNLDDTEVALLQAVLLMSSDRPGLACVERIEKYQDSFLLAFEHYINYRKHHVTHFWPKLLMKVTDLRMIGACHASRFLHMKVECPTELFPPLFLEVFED
Outline: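 Extracts of COS cells transfected with pCMX TRβ expression plasmid, 48 h post-transfection; 5 μg protein pre-incubated on ice 20 min with poly dI/dC, then 40 fmole 32P-labelled oligonucleotide 30 min at room temperature. Complexes resolved on 5% polyacrylamide gel.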

endogenous RA receptor [2] = assay: Delta-MTV-CAT constructs, RA induction in CV-1 cells without cotransfected RAR expression vector; type: cell-based, monkey
Procedure: as §1

[3] = biological target: T4, Retinoic acid receptor alpha (RARα), in CV-1 cells (Homo sapiens, UniProt P10276 P10276:1-462); assay: cell_activity; RA 1 µM, CV-1; details: tags: RSV or pRS expression vector; label: 32P; 5'-agct overhangs
T4 sequence: T1 sequence (P10276 1-462)
Procedure: For cotransfection assays, a monkey kidney cell line CV-1 was kept in Dulbecco's modified Eagle's medium (DMEM) supplemented with 10% charcoal-resin double split calf bovine serum. Transfections were performed via calcium-phosphate precipitation method as described by Umesono, et al. in Cell 57: 1139–1146 (1989), with 0.5 μg of a pRS receptor expression plasmid, 1.0 μg of a reporter CAT plasmid, 5 μg of pRAS-βGAL [Umesono, et al., Cell 57: 1139–1146 (1989)] as an internal control, and 8.5 μg of carrier plasmid pUC19. The cells were transfected for 8 hours; after washing the DNA precipitates, the cells were then incubated for an additional 36 hours with or without the ligand (T_3, 100 nM; RA, 1 μM; 1,25-(OH)_2 vitamin D_3, 100 nM). Cell extracts were prepared for βGAL and CAT assays, as described by Umesono, et al., supra. Transfection of F9 teratocarcinoma cells was carried out employing a similar method except the cells were incubated for 12 hours in the presence of the DNA precipitates, and the RA was added at 1 μM for another 24 hours before harvesting the cells. 2, 5, and 4 μg of the reporter, pRAS-βGAL, and pUC19 were used, respectively.
The above strategies were used to test both in vivo transactivation and in vitro DNA-binding of these artificial HREs for TRβ, RARα, and VDR. […]

| Molecule | RA-dependent transactivation in the absence of transfected RAR expression vector (endogenous RA receptor [1]) | RARα binding to labeled oligonucleotide probe (RARα; gel retardation, RARα COS cell extract) | competition for RARα binding to 32P-labeled βRARE (RARα; unlabeled competitor oligonucleotide, COS cell extracts) | increase of induction by cotransfection of RAR-alpha expression vector (RAR) | TRβ binding to labeled oligonucleotide probe (TRβ; gel retardation, TRβ COS cell extract) | competition for TRβ binding (mobility shift assay) (TRβ; unlabeled competitor oligonucleotide, COS cells expressing TRβ) | RA-dependent induction in the absence of cotransfected RAR expression vector (endogenous RA receptor [2]) | activity [3] |
| --- | --- | --- | --- | --- | --- | --- | --- | --- |
| 5′-AAGCTTAAG-GGTTCA-CCGAA-AGTTCA-CTCGCATAGCTT-3′ (SEQ ID NO:6) (AAGCTTAAGGGTTCACCGAAAGTTCACTCGCATAGCTT; DNA, backbone not given here) [βRE2, oligonucleotide including the β retinoic acid response element; βRARE corresponds to βRE2] | efficiently transactivate | dramatically enhanced | effective competitors | two-fold | weak, yet detectable binding activity | poor competitors | robust RA-dependent induction |  |
| B1 |  |  |  |  |  |  |  | 9 fold induction |
